Data on two molecules can be found in EPA's ToxRefDB 2.

The structures appear in SMILES notation. Bounds are passed on as bounds.

For data set [1], the system named is dog. The conditions noted are these: Chronic toxicity; beagle; Oral; Gavage/Intubation; dose end: 364 day; group: systemic; systemic / in life observation / body weight / body weight + systemic / in life observation / clinical signs / arrhythmia + systemic / in ….
The subject of data set [2] is rat. The conditions noted are these: Sub-acute repeat dose toxicity, sprague dawley, Oral, Gavage/Intubation, dose end: 30 day, group: systemic.
In data set [3] the test system is rabbit. The following applies: Sub-acute repeat dose toxicity; new zealand white; Oral; Gavage/Intubation; dose end: 5 day; group: systemic; systemic / in life observation / body weight / body weight + systemic / in life observation / food consumption / food consumption.
The subject of data set [4] is dog. The following applies: Sub-acute repeat dose toxicity; beagle; Oral; Gavage/Intubation; dose end: 30 day; group: systemic; systemic / clinical chemistry / potassium / potassium + systemic / in life observation / clinical signs / emesis + systemic / in life ….
Data set [5] relates to rat. The conditions noted are these: Fertility (Segment I), sprague dawley, Oral, Gavage/Intubation, dose end: 1 generation, group: parental.
The subject of data set [6] is rabbit. The conditions noted are these: Prenatal developmental toxicity study, Oral, Gavage/Intubation, dose end: 19 GD.
For another data set, the system named is mouse. The following applies: Sub-acute repeat dose toxicity, Oral, Feed, dose end: 14 day, group: systemic.
In data set [7] the test system is rat. The following applies: Sub-acute repeat dose toxicity, sprague dawley, Oral, Gavage/Intubation, dose end: 14 day, group: systemic.
Data set [8] deals with rat. The following applies: Sub-acute repeat dose toxicity, sprague dawley, Oral, Feed, dose end: 14 day, group: systemic.
In data set [9] the test system is rat. The following applies: Fertility (Segment I), sprague dawley, Oral, Gavage/Intubation, dose end: 1 generation, group: parental. The source holds these as a separate data set.
In data set [10] the test system is dog. The following applies: Sub-acute repeat dose toxicity; beagle; Oral; Gavage/Intubation; dose end: 10 day; group: systemic; systemic / in life observation / clinical signs / abnormal feces + systemic / in life observation / clinical signs / salivation + systemic….
Data set [11] concerns rat. The conditions noted are these: Chronic toxicity; sprague dawley; Oral; Gavage/Intubation; dose end: 182 day; group: systemic; systemic / clinical chemistry / glucose / glucose + systemic / clinical chemistry / triglycerides / triglycerides + systemic / in life ….
Data set [12] deals with rat. The following applies: Prenatal developmental toxicity study; wistar; Oral; Feed; dose end: 15 GD; group: maternal; systemic / in life observation / body weight / body weight gain + systemic / in life observation / food consumption / food consumption.
Setting [13] is: systemic / clinical chemistry / 5' nucleotidase / 5' nucleotidase + systemic / clinical chemistry / [other] / [other] + systemic / clinical ….
[14] abbreviates: systemic / in life observation / body weight / body weight + systemic / in life observation / clinical signs / salivation + systemic / in ….
Setting [15] is: systemic / in life observation / body weight / body weight + systemic / in life observation / food consumption / food consumption.
Where [16] appears, read: group: developmental, developmental / developmental malformation / bone / delayed ossification + systemic / in life observation / body weight / fetal weight.
The mark [17] stands for this setting: group: maternal, systemic / in life observation / body weight / body weight gain + systemic / in life observation / food consumption / food consumption.
Where [18] appears, read: systemic / in life observation / body weight / body weight + systemic / in life observation / body weight / body weight gain + systemic / in….
Where [19] appears, read: systemic / hematology / erythrocyte (rbc) count differential / erythrocyte (rbc) + systemic / hematology / hematocrit (hct) / hematocrit (….
[20] abbreviates: systemic / in life observation / clinical signs / salivation.
[21] abbreviates: systemic / in life observation / food consumption / food consumption + systemic / in life observation / body weight / body weight.
The mark [22] stands for this setting: systemic / in life observation / food consumption / food consumption + systemic / in life observation / body weight / body weight + systemic….

With `O=C(Cc1ccc(Cl)c(Cl)c1)N(O)[C@H](CN1CC[C@H](O)C1)c1ccccc1`, the LEL in the data set with dog [1] was determined as 1 mg/kg/day; in the data set on rabbit [3], 1 mg/kg/day; with rat [5] (setting [15]), 10 mg/kg/day; with mouse (systemic / in life observation / clinical signs / hunched posture), 300 mg/kg/day; in the data set on rat [7] (setting [20]), 25 mg/kg/day; in the data set with rat [8] (setting [21]) it was 1 mg/kg/day. The LEL stood at 10 mg/kg/day in the data set with rat [9] (setting [15]) and 1 mg/kg/day in the data set on dog [10]. Besides, the LOAEL with dog [1] was above 1 mg/kg/day; in the data set with rat [2] (setting [13]), above 150 mg/kg/day; in the data set on rabbit [3], above 150 mg/kg/day; in the data set with dog [4], above 1 mg/kg/day; in the data set on rat [5] (setting [14]), above 50 mg/kg/day; in the data set on rabbit [6] (setting [16]), above 5 mg/kg/day. For the same molecule, the lowest observed adverse effect level (LOAEL) is above 5 mg/kg/day in the data set on rabbit [6] (setting [17]); above 1000 mg/kg/day in the data set on mouse (setting [18]); above 500 mg/kg/day in the data set on rat [7] (setting [19]); above 300 mg/kg/day in the data set on rat [8] (setting [22]); above 50 mg/kg/day in the data set with rat [9] (setting [14]); above 1 mg/kg/day in the data set on dog [10]. In addition, the LOAEL in the data set with rat [11] was above 150 mg/kg/day. For the same molecule, the NEL was below 1 mg/kg/day in the data set with dog [1]; 1 mg/kg/day in the data set on rat [2] (systemic / clinical chemistry / [other] / [other] + systemic / clinical chemistry / albumin / albumin + systemic / clinical chemistry / …); below 1 mg/kg/day in the data set with rabbit [3]; 1 mg/kg/day in the data set on rat [5] (setting [14]); below 25 mg/kg/day with rat [7] (setting [20]); below 1 mg/kg/day in the data set with rat [8] (setting [21]). In addition, the results for the NEL with rat [9] (setting [14]), in the data set with dog [10] and in the data set with rat [11] were 1 mg/kg/day, below 1 mg/kg/day and 1 mg/kg/day, respectively. Further, the NOAEL with dog [1] was at least 1 mg/kg/day; in the data set with rat [2] (setting [13]), at least 150 mg/kg/day; in the data set on rabbit [3], at least 150 mg/kg/day; in the data set on dog [4], at least 1 mg/kg/day; in the data set with rat [5] (setting [14]) it was at least 50 mg/kg/day; with rabbit [6] (setting [16]), at least 5 mg/kg/day. In addition, the NOAEL in the data set on rabbit [6] (setting [17]) was at least 5 mg/kg/day; in the data set on mouse (setting [18]) it was at least 1000 mg/kg/day; with rat [7] (setting [19]) it was at least 500 mg/kg/day; in the data set with rat [8] (setting [22]), at least 300 mg/kg/day; in the data set with rat [9] (setting [14]) it was at least 50 mg/kg/day; in the data set with dog [10] it was at least 1 mg/kg/day. Moreover, the NOAEL with rat [11] was at least 150 mg/kg/day.

Regarding `CC(C)(C)c1ccc(O)cc1` [4-tert-Butylphenol], in the data set with rat [12], the LEL came to 3590 mg/kg/day and the LOAEL was found to be 3590 mg/kg/day.

One may read the LOAEL as the lowest tested level that showed an adverse finding. By NOAEL is commonly meant the highest tested level that showed no adverse finding.
